In one data set the test system is human COL1A2 promoter. The data set can be described thus: Col1A2 gene transcriptional activity (luciferase) in NIH-3T3-Col1A2-luc cells stimulated with TGFβ. It is filed as cell-based, mouse. The settings on record: TGFβ 10 ng/ml, 24 h; Figure 3. The source says: The effect of CBD isomers on collagen transcriptional regulation in NIH-3T3 cells stably expressing the Col1A2-luc plasmid, which encodes the gene promoter of the pro-alpha2 chain component of type I collagen fused to the luciferase gene, was studied. NIH-3T3-COL1A2-Luc fibroblast cells were generated by stable transfection of the COL-1A2-Luc plasmid, containing sequences from -353 to +58 bp of the human COL1A2 promoter fused to the luciferase reporter gene, and pPURO plasmid. Cells are cultivated at a density of 1 x 10^4 cells/ml for 24 h at 37°C. Then the cells were treated with the CBD isomers at several concentrations and TGFβ (10 ng/ml) for 24 h. Then, the cells are washed with PBS and lysed in 50 µl lysis buffer containing 25 mM Tris-phosphate (pH 7.8), 8 mM MgCl2, 1 mM DTT, 1% Triton X-100, and 7% glycerol during 15 min. Luciferase activity and protein concentration is measured in the cell lysates, to calculate the RLU/µg of protein and the results expressed as the percentage of induction considering the value obtained with TGFβ as 100% activation. The protein concentration in the cell extracts was measured by the Bradford method (BioRad).

The subject of data set [1] is normal human dermal fibroblasts (NHDFs). Briefly: Collagen secretion (Sircol Soluble Collagen Assay) in TGFβ-stimulated NHDFs. It is filed as cell-based. The settings on record: 1 h pre-treatment, TGFβ 24 h; Figure 4. Here is the method:
Next, NHDFs were used to correlate the effect of both isomers of CBD on Col1A2 transcriptional activity with collagen secretion. NHDFs were seeded in 24 well plates (5x10^4 cells/well), pre-treated with either (-)CBD or (+)CBD for 1 h and stimulated with TGFβ for the following 24 h. Collagen secretion was studied by collecting culture medium and measuring soluble collagen using the Sircol Soluble Collagen Assay (Biocolor, County Antrim, UK) following manufacturer's instructions.

In another data set the target is CB2 (Homo sapiens, UniProt P34972). The following applies: Bisogno et al. 2001; cited from earlier work.
The next data set concerns anandamide hydrolysis. The settings on record: Bisogno et al. 2001; cited from earlier work.
The target of the next data set is TRPV-1 (Homo sapiens, UniProt Q8NER1). The following applies: Bisogno et al. 2001; cited from earlier work.
The test system of another data set is NHDFs. Briefly: Fibroblast migration scratch (wound healing) assay in NHDFs. The following applies: Figure 6. In kind it is cell-based, human. Here is the method: Migration of skin fibroblast plays a crucial role not only in normal wound healing but also in fibrotic diseases. To further analyze this point, it was tested if the anti-fibrotic effect of (-)CBD could be associated with reduced fibroblast migration. To investigate this possibility, the effect of (-)CBD on TGFβ-induced wound healing was investigated. NHDFs (2x10^3 cells) were seeded in complete DMEM in a 96-well Essen ImageLock plates (Essen BioScience). When cells reached confluence, wound scratches were made using the 96-pin WoundMaker (Essen BioScience). Then, culture medium was replaced by DMEM supplemented with 1% antibiotics and with mitomycin C (10 ng/ml) to block cell proliferation. (-)CBD and TGFβ1 10 ng/ml were added in parallel. Wound healing activity was analyzed using IncuCyte HD system by taking images every 3 h for 48 h and the percentage of wound confluence calculated with the IncuCyte software.

In the next data set the test system is BLM-induced fibrosis. Briefly: Bleomycin (BLM) mouse model of skin fibrosis, histology and observation. In kind it is in vivo, Mice. Here is the method: The bleomycin (BLM) mice model is widely used to evaluate potential anti-inflammatory and anti-fibrotic therapies for SSc. BLM causes inflammation in a short period of time, characterized by elevation of proinflammatory cytokines and growth factors that peak around day 14 of BLM exposure. […] The inflammatory model of SSc was used to study (-)CBD preventive effects. Fibrosis was induced by daily subcutaneous administration of BLM (50 µg/mice; 100 µl) (Mylan, Barcelona, Spain) for 3 weeks. Treatments were administered in parallel and consisted of daily intraperitoneal (i.p.) injections of (-)CBD (20 mg/kg), or vehicle (4% DMSO, 6.2% Tween20, saline; 100 µl). Subcutaneous injections of 0.9% NaCl served as a control. Mice were acclimated to manipulators for a week previously to the experiments in order to reduce stress and allow the detection of subtle changes in behavior by researchers. […] Mice were sacrificed by cervical dislocation and the back skin was removed and processed for histological examination or was frozen for further analysis.
Mast cells degranulation as well as macrophages and lymphocyte accumulation are the hallmark of BLM-induced fibrosis and play important roles during the inflammatory phase of SSc. Mast cells degranulation can be identified by toluidine blue staining and macrophage accumulation by staining with a mAb that identifies F4/80^+ cells. Skin sections ([…]) were stained toluidine blue. For immunohistochemical detection of macrophages F4/80 (1:50; MCA497, Bio-Rad) antibody was used. Slides were developed with diaminobenzidine chromogen (Merck Millipore) and counterstained in Harris hematoxylin. Slides were photographed, digitalized using a Leica DFC420c camera and analyzed using Image J software.

Data set [2] deals with Il13, IL1β, IL6, CCL2, TGFβ and IL4. Briefly: Real-time quantitative PCR of inflammatory and fibrotic cytokines in skin of BLM mice. It is filed as in vivo. The following applies: mRNA, 2^-ΔΔCt, Figure 11. Here is the method: Total RNA was isolated from mice frozen skin tissue using QIAzol lysis reagent (Qiagen, Hilden, Germany) and purified with RNeasy mini kit (Qiagen). Total RNA (1 µg) was retrotranscribed using the iScript™ cDNA Synthesis Kit (Bio-Rad), and the cDNA generated was analysed by real-time PCR using the iQTM SYBR Green Supermix (Bio-Rad) using a CFX96 Real-Time PCR Detection System (Bio-Rad). […] The GAPDH housekeeping gene was used to standardize the mRNA expression levels in every sample. Expression levels were calculated using the 2^-ΔΔCt method. Gene expression were normalized to GADPH mRNA levels in each sample and expressed using the 2^-ΔΔCt method. Table 1. List of mouse primer sequences used in quantitative Polymerase Chain Reaction

In data set [3] the test system is activated hepatic stellate cells. The settings on record: Lim et al. 2011; cited from earlier work.
The subject of data set [4] is diabetes-associated myocardial fibrosis. The settings on record: Rajesh et al. 2010; cited from earlier work.
Where [5] appears, read: BLM 3 weeks, 20 mg/kg i.p. daily, Figure 8.

TRPV-1, sequence (Q8NER1 whole entry, species assumed): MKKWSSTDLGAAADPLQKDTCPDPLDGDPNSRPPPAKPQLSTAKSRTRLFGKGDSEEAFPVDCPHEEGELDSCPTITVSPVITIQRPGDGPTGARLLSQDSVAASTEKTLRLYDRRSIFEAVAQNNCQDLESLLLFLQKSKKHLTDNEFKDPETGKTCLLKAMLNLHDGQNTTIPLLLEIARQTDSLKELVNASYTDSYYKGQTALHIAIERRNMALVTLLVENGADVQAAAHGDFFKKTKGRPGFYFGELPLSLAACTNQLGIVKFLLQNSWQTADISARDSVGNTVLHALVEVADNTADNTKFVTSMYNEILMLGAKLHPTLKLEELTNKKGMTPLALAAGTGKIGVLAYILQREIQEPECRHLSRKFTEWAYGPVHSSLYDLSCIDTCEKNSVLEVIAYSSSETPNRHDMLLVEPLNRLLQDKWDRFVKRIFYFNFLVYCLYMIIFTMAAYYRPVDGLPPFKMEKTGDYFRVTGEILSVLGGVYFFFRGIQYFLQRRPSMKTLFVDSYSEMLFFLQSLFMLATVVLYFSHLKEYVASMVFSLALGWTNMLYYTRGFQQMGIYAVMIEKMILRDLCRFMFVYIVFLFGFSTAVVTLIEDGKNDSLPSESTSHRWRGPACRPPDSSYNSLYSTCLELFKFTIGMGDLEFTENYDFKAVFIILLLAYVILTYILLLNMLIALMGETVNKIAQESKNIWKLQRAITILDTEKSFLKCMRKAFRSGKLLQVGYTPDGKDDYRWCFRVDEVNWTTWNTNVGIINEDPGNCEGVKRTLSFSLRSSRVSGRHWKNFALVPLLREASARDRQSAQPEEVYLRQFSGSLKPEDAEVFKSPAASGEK
CB2, sequence (P34972 whole entry, species assumed): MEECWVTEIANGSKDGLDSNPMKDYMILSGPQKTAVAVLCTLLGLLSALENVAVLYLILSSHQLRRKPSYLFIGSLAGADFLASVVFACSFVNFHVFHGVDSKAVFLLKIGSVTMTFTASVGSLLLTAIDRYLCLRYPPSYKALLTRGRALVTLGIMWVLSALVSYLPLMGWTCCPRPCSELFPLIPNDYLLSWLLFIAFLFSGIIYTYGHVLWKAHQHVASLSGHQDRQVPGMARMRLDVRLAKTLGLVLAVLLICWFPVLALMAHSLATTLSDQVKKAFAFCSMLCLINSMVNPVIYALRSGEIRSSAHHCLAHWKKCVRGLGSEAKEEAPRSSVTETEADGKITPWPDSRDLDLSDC

With `C=C(C)[C@H]1CCC(C)=C[C@@H]1c1c(O)cc(CCCCC)cc1O` [(+)CBD, (+)Cannabidiol], the “collagen promoter transcriptional activity” value in the data set on human COL1A2 promoter is “significantly reduced”. Further, in data set [1], the “TGFβ-induced collagen release and deposition” value was “significantly inhibited”. In addition, at CB2, the “affinity at CB2 receptors” value is “has been shown to have affinity”. Besides, the anandamide hydrolysis entry in the data set on anandamide hydrolysis is given as “inhibited”. Further, the “activity of the TRPV-1” value at TRPV-1 is recorded as “modulated”.

Turning to `C=C(C)[C@@H]1CCC(C)=C[C@H]1c1c(O)cc(CCCCC)cc1O` [(-)CBD, 2-[(1R,6R)-3-methyl-6-prop-1-en-2-ylcyclohex-2-en-1-yl]-5-pentylbenzene-1,3-diol], in the data set with human COL1A2 promoter, the “collagen promoter transcriptional activity” value was “significantly reduced”. Besides, the “TGFβ-induced collagen release and deposition” value in data set [1] is on record as “significantly inhibited”. Also, the “wound closure induced by TGFβ1” value with NHDFs (TGFβ1 10 ng/ml, 48 h, concentration-dependent) was “significantly attenuated”. Further, in the data set with NHDFs (rhIL-4, concentration-dependent), the “wound closure induced by rhIL-4” value is listed as “significantly attenuated”. Also, in the data set on BLM-induced fibrosis (setting [5]), the dermal thickness entry is “attenuated” and the “loss of adipose tissue layer induced by BLM” value is on record as “not were able to recover”. Also, the “piloerection, hunched appearances” value in the data set with BLM-induced fibrosis (during the experimental procedures, 20 mg/kg i.p. daily) is “Neither piloerection nor hunched appearances were appreciated”. Also, the behavioral changes result in the data set with BLM-induced fibrosis (during the protocols, 20 mg/kg i.p. daily) is on record as “No behavioral changes”. Besides, the Mice weight entry with BLM-induced fibrosis (evaluated weekly, between experimental groups, 20 mg/kg i.p. daily) is reported as “no significant changes”. In the data set with BLM-induced fibrosis (immunostaining, versus BLM untreated mice, 20 mg/kg i.p., Figure 10), the “infiltration of F4/80^+ macrophages” value is on record as “significantly reduced”. Moreover, in the data set on BLM-induced fibrosis (toluidine blue, BLM 3 weeks, 20 mg/kg i.p., Figure 9), the “number of degranulated mast cells in the lesioned skin” value is “prevented”. Also, in data set [2], the “expression levels of CCL2 in the skin” value is reported as “significantly reduced”, the “expression levels of IL1β in the skin” value was “significantly reduced”, the “expression levels of IL4 in the skin” value is “significantly reduced” and the “expression levels of IL6 in the skin” value was “significantly reduced”. For the same molecule, in data set [2], the “expression levels of Il13 in the skin” value was “significantly reduced” and the “expression levels of TGFβ in the skin” value is listed as “significantly reduced”. In the data set with anandamide hydrolysis, the anandamide hydrolysis result was “inhibited”. The “activity of the TRPV-1” value on TRPV-1 is listed as “modulated”. The “cell death of activated hepatic stellate cells” value in [3] is given as “induces cell death”. Also, the diabetes-associated myocardial fibrosis result in data set [4] was “attenuates”.

The values above are taken from EP3643303A1, “COMPOUNDS FOR USE IN THE TREATMENT OR PREVENTION OF FIBROTIC DISEASES; PHARMACEUTICAL, COSMETIC COMPOSITIONS AND USES THEREOF” (InnovativeHealth Group SL, priority 2018, dated 2020).
